Experiments:
[1] = test system: anti-Factor Xa Activity of Unfractionated Heparin; assay: Anti-Factor Xa assay: neutralization of unfractionated heparin in citrate or plasma in vitro; format: biochemical, human; conditions: for Unfractionated Heparin Neutralized: UFH 0.7 U/ml
Description: (§1) The ability of peptides such as (ARKKAAKA)3VLVLVLVL (SEQ ID NO:5) to neutralize the anti-Factor Xa activity of UFH and LMWH in vitro was tested using the Stachrom Heparin kit (Diagnostica Stago), a standard hematology laboratory assay used to measure the anti-Factor Xa activity of heparin. The assay was performed using the low molecular weight heparin enoxaparin sodium (Lovenox®, Aventis Pharmaceuticals, Inc.), unfractionated heparin (UFH), or the non-heparin glycosaminoglycan danaparoid sodium (Orgaran®, Organon Inc., West Orange, N.J.) in 0.32% citrate or in plasma anticoagulated with 0.32% citrate. Enoxaparin is commonly used clinically as a low molecular weight heparin (LMWH). Danaparoid is commonly used clinically as a non-heparin glycosaminoglycan anticoagulant. Currently, the only FDA approved drug to target UFH is protamine, which is not effective in vivo against LMWH or a non-heparin glycosaminoglycan such as danaparoid. Buffer and ATIII are added to form the heparin/ATIII complex, peptide is added, then Factor Xa, reporter dye substrate for Factor Xa activity, and stop solution, and the dye concentration is read at 405 nm. The absorbance of the dye increases with increasing Factor Xa activity, and thus is inversely proportional to the heparin (anti-Factor Xa activity) concentration. Peptides were tested in plasma obtained from three volunteers (A, B, and C). Platelet function inhibitors PG12 and theophylline were added to the blood immediately upon collection. […]

[2] = Hemodynamic effects in rats without prior Lovenox; conditions: no Lovenox
Description: Rats were sedated, and catheters were inserted into the femoral vein and femoral artery. The femoral artery catheter was hooked up to the computerized monitoring system, and injections were made through the femoral vein. Peptides were injected into rats without prior injection of Lovenox. Two or more rats (300-350 grams) were treated with 2 mg protamine or peptide.
At the times indicated in the figures, the following actions were taken: administration of saline to insure that the animal and intubations were stable; administration of test peptide or protamine alone; then administration of protamine.

[3] = Hemodynamic effects in rats after administration of the LMWH Lovenox; conditions: in the presence of LMWH Lovenox
Description: Next, experiments were performed in which the animals were treated with the peptides after the administration of the LMWH Lovenox®, as would happen in the clinical situation, because binding of peptides to LMWH would be expected to reduce the effects of the peptides on hemodynamic function.

[4] = test system: Anti-Factor Xa Activity of the Non-Heparin Glycosaminoglycan Orgaran ®; assay: Anti-Factor Xa assay: neutralization of Orgaran in citrate or plasma in vitro; format: biochemical, human
Description: as §1

ARKKAAKAARKKAAKAARKKAAKAVLVLVL [(ARKKAAKA)3VLVLVL]
Unfractionated Heparin Neutralized ([1]; 1 μg/ml Peptide, A Plasma): 0.249 ± 0.129 U/ml | Unfractionated Heparin Neutralized ([1]; 1 μg/ml Peptide, B Plasma): 0.142 ± 0.040 U/ml | Unfractionated Heparin Neutralized ([1]; 1 μg/ml Peptide, C Plasma): 0.114 ± 0.056 U/ml | Unfractionated Heparin Neutralized ([1]; 1 μg/ml Peptide, Citrate): 0.150 ± 0.023 U/ml | Unfractionated Heparin Neutralized ([1]; 6 μg/ml Peptide, A Plasma): 0.667 ± 0.019 U/ml | Unfractionated Heparin Neutralized ([1]; 6 μg/ml Peptide, B Plasma): 0.598 ± 0.016 U/ml | Unfractionated Heparin Neutralized ([1]; 6 μg/ml Peptide, C Plasma): 0.572 ± 0.018 U/ml | Unfractionated Heparin Neutralized ([1]; 6 μg/ml Peptide, Citrate): 0.576 ± 0.060 U/ml | Unfractionated Heparin Neutralized ([1]; 12 μg/ml Peptide, A Plasma): 0.570 ± 0.119 U/ml | Unfractionated Heparin Neutralized ([1]; 12 μg/ml Peptide, B Plasma): 0.585 ± 0.005 U/ml | Unfractionated Heparin Neutralized ([1]; 12 μg/ml Peptide, C Plasma): 0.575 ± 0.013 U/ml | Unfractionated Heparin Neutralized ([1]; 12 μg/ml Peptide, Citrate): 0.595 ± 0.021 U/ml

Protamine [reference compound]
reduction/drop of blood pressure ([2]; 2 mg per rat (300-350 grams)): 25-35 mm Hg | onset of blood pressure reduction ([2]; 2 mg per rat): within less than a minute | time to nadir of blood pressure ([2]; 2 mg per rat): about 4.5 minutes | time to recovery/reversal of blood pressure ([2]; 2 mg per rat): 10 to 12 min | blood pressure drop [3]: ≥ 30 mm Hg | duration of blood pressure drop [3]: 10 min | heart rate nadir [3]: about 80 % of normal | rats with blood pressure drop out of rats tested [3]: 10 out of 15 | Unfractionated Heparin Neutralized ([1]; 1 μg/ml Peptide, A Plasma): 0.241 ± 0.026 U/ml | Unfractionated Heparin Neutralized ([1]; 1 μg/ml Peptide, B Plasma): 0.268 ± 0.028 U/ml | Unfractionated Heparin Neutralized ([1]; 1 μg/ml Peptide, C Plasma): 0.161 ± 0.030 U/ml | Unfractionated Heparin Neutralized ([1]; 1 μg/ml Peptide, Citrate): 0.126 ± 0.042 U/ml | anti-Factor Xa activity of UFH neutralized ([1]; 6 μg/ml): about 0.4 U/ml | Unfractionated Heparin Neutralized ([1]; 6 μg/ml Peptide, A Plasma): 0.442 ± 0.012 U/ml | Unfractionated Heparin Neutralized ([1]; 6 μg/ml Peptide, B Plasma): 0.423 ± 0.035 U/ml | Unfractionated Heparin Neutralized ([1]; 6 μg/ml Peptide, C Plasma): 0.425 ± 0.012 U/ml | Unfractionated Heparin Neutralized ([1]; 6 μg/ml Peptide, Citrate): 0.475 ± 0.017 U/ml | Unfractionated Heparin Neutralized ([1]; 12 μg/ml Peptide, A Plasma): 0.466 ± 0.023 U/ml | Unfractionated Heparin Neutralized ([1]; 12 μg/ml Peptide, B Plasma): 0.448 ± 0.041 U/ml | Unfractionated Heparin Neutralized ([1]; 12 μg/ml Peptide, C Plasma): 0.405 ± 0.035 U/ml | Unfractionated Heparin Neutralized ([1]; 12 μg/ml Peptide, Citrate): 0.429 ± 0.010 U/ml | Unfractionated Heparin Neutralized ([1]; 60 μg/ml Peptide, A Plasma): 0.380 ± 0.037 U/ml | Unfractionated Heparin Neutralized ([1]; 60 μg/ml Peptide, B Plasma): 0.387 ± 0.047 U/ml | Unfractionated Heparin Neutralized ([1]; 60 μg/ml Peptide, C Plasma): 0.350 ± 0.019 U/ml | Unfractionated Heparin Neutralized ([1]; 60 μg/ml Peptide, Citrate): 0.406 ± 0.023 U/ml | Unfractionated Heparin Neutralized ([1]; 120 μg/ml Peptide, A Plasma): 0.372 ± 0.024 U/ml | Unfractionated Heparin Neutralized ([1]; 120 μg/ml Peptide, B Plasma): 0.374 ± 0.034 U/ml | Unfractionated Heparin Neutralized ([1]; 120 μg/ml Peptide, C Plasma): 0.310 ± 0.024 U/ml | Unfractionated Heparin Neutralized ([1]; 120 μg/ml Peptide, Citrate): 0.374 ± 0.030 U/ml | Orgaran Neutralized ([4]; 1 μg/ml Peptide, A Plasma): 0.027 ± 0.004 U/ml | Orgaran Neutralized ([4]; 1 μg/ml Peptide, B Plasma): 0.021 ± 0.007 U/ml | Orgaran Neutralized ([4]; 1 μg/ml Peptide, C Plasma): 0.017 ± 0.006 U/ml | Orgaran Neutralized ([4]; 1 μg/ml Peptide, Citrate): 0.030 ± 0.015 U/ml | Orgaran Neutralized ([4]; 6 μg/ml Peptide, A Plasma): 0.050 ± 0.025 U/ml | Orgaran Neutralized ([4]; 6 μg/ml Peptide, B Plasma): 0.040 ± 0.018 U/ml | Orgaran Neutralized ([4]; 6 μg/ml Peptide, C Plasma): 0.034 ± 0.021 U/ml | Orgaran Neutralized ([4]; 6 μg/ml Peptide, Citrate): 0.093 ± 0.046 U/ml | Orgaran Neutralized ([4]; 12 μg/ml Peptide, A Plasma): 0.016 ± 0.013 U/ml | Orgaran Neutralized ([4]; 12 μg/ml Peptide, B Plasma): 0.065 ± 0.014 U/ml | Orgaran Neutralized ([4]; 12 μg/ml Peptide, C Plasma): 0.043 ± 0.018 U/ml | Orgaran Neutralized ([4]; 12 μg/ml Peptide, Citrate): 0.308 ± 0.017 U/ml | Orgaran Neutralized ([4]; 60 μg/ml Peptide, A Plasma): 0.140 ± 0.021 U/ml | Orgaran Neutralized ([4]; 60 μg/ml Peptide, B Plasma): 0.241 ± 0.032 U/ml | Orgaran Neutralized ([4]; 60 μg/ml Peptide, C Plasma): 0.234 ± 0.025 U/ml | Orgaran Neutralized ([4]; 60 μg/ml Peptide, Citrate): 0.322 ± 0.038 U/ml | Orgaran Neutralized ([4]; 120 μg/ml Peptide, A Plasma): 0.340 ± 0.021 U/ml | Orgaran Neutralized ([4]; 120 μg/ml Peptide, B Plasma): 0.364 ± 0.013 U/ml | Orgaran Neutralized ([4]; 120 μg/ml Peptide, C Plasma): 0.318 ± 0.019 U/ml | Orgaran Neutralized ([4]; 120 μg/ml Peptide, Citrate): 0.136 ± 0.034 U/ml

VLVL(ARKKAAKA)3ARKKCAKA (VLVLARKKAAKAARKKAAKAARKKAAKAARKKCAKA; Fragment)
Unfractionated Heparin Neutralized ([1]; 1 μg/ml Peptide, A Plasma): 0.240 ± 0.061 U/ml | Unfractionated Heparin Neutralized ([1]; 1 μg/ml Peptide, B Plasma): 0.259 ± 0.063 U/ml | Unfractionated Heparin Neutralized ([1]; 1 μg/ml Peptide, C Plasma): 0.233 ± 0.075 U/ml | Unfractionated Heparin Neutralized ([1]; 1 μg/ml Peptide, Citrate): 0.262 ± 0.101 U/ml | Unfractionated Heparin Neutralized ([1]; 6 μg/ml Peptide, A Plasma): 0.574 ± 0.014 U/ml | Unfractionated Heparin Neutralized ([1]; 6 μg/ml Peptide, B Plasma): 0.550 ± 0.061 U/ml | Unfractionated Heparin Neutralized ([1]; 6 μg/ml Peptide, C Plasma): 0.559 ± 0.014 U/ml | Unfractionated Heparin Neutralized ([1]; 6 μg/ml Peptide, Citrate): 0.597 ± 0.034 U/ml | Unfractionated Heparin Neutralized ([1]; 12 μg/ml Peptide, A Plasma): 0.618 ± 0.014 U/ml | Unfractionated Heparin Neutralized ([1]; 12 μg/ml Peptide, B Plasma): 0.586 ± 0.001 U/ml | Unfractionated Heparin Neutralized ([1]; 12 μg/ml Peptide, C Plasma): 0.526 ± 0.031 U/ml | Unfractionated Heparin Neutralized ([1]; 12 μg/ml Peptide, Citrate): 0.534 ± 0.056 U/ml
